What was measured:
MCF10A cells = assay: MCF10A non-cancer breast epithelial cell viability, sulforhodamine B assay; assay type: cell-based, human; settings: 72 h
Procedure: MCF7 (ER^+, PR^+, HER2^−), SKBR3 (ER^−, PR^+, HER2^+) and MDA-MB231 (ER^−, PR^−, HER2^−) human BC cells and MCF10A non-cancer breast epithelial cells were available in our laboratory. MCF7, SKBR3 and MDA-MB231 cells were cultured in DMEM, supplemented with 10% FBS, 2 mM glutamine, 100 units/ml penicillin and 100 units/ml streptomycin. MCF10A cells were cultured in MEBM, supplemented with 0.4% BPE, 0.1% hEGF, 0.1%, Insulin, 0.1% Hydrocortisone and 0.1% GA-1000. Cultures were maintained in a humidified atmosphere of 95% air and 5% CO2 at 37 °C. Treatment with SER were carried out in culture conditions. […]
Cells were fixed with 50% trichloroacetic acid for at least 2 h at 4 °C, washed with distilled and de-ionized water, air-dryed and stained 30 min with 0.4% sulforhodamine B in 1% acetic acid. […] Cell survival was assessed by optical density determination at 510 nm using a microplate reader.
Fig. 7 Effect of low doses of SER79 and SER68 on MCF7 and MCF10A cells. a Estrogen-starved MCF7 cells (48 h) were treated with Tamoxifen (5 μM) in presence of E2 (100nM) and SER79 (5 μM) or SER68 (20 μM, 5 μM). […] After 72 h, cell viability was assessed by sulforhodamine B assay (see Methods). […] After 72 h, mRNA levels of CTGF were determined by qPCR (see Methods and Table 1). […] After 72 h, cell viability was assessed by sulforhodamine B assay (see Methods). […]

[1] = target: T1, serotonin 5-HT2A receptor (Rattus norvegicus, UniProt P14842); assay: radioligand binding assay, 5-HT2A, [3H]ketanserin; settings: rat brain cortex; for Ki: read-out: Ki ± SD, 5-HT2A [3H]Ketanserin
T1 construct: serotonin 5-HT2A receptor, [^3H]ketanserin, rat brain cortex; from tissue; host or cells: rat brain cortex
Procedure: All reactions were monitored by TLC, carried out on Merck 60G F254 plates with fluorescent indicator and the plates were visualized with UV light (254 nm). Each final compound and intermediate was purified by silica gel column chromatography (Macherey-Nagel 60 0,063–0,2 mm/70–230 mesh). […] Unless otherwise stated, all spectra were recorded in CDCl3. Chemical shifts are reported in ppm using Me4Si as internal standard. The following abbreviations are used to describe peak patterns when appropriate: s (singlet), d (doublet), t (triplet), m (multiplet), q (quartet), qt (quintet), dd (double doublet), ddd (double dd), bs (broad singlet). Mass spectra of the final products were performed on LTQ Orbitrap XL™ Fourier transform mass spectrometer (FTMS) equipped with ESI ION MAX™ source (Thermo Fisher, San José, USA). Melting points were determined using a Buchi B-540 hot-stage instrument and are uncorrected. […] All the compounds were dissolved in 5% DMSO. The following specific radioligands and tissue sources were used: (a)serotonin 5-HT1A receptor, [^3H]-8-OH-DPAT, rat brain cortex; (b) serotonin 5-HT2A receptor, [^3H]ketanserin, rat brain cortex; (c)serotonin 5-HT2C receptor, [^3H]mesulergine, rat brain cortex. Non-specific binding was determined as described in the experimental section, and specific binding as the difference between total and non-specific binding. […] The IC50 values obtained were used to calculate apparent inhibition constants (Ki) by the method of Cheng and Prussoff, from the following equation: Ki = IC50/(1 + S/KD) where S represents the concentration of the hot ligand used and KD its receptor dissociation constant (KD values, obtained by Scatchard analysis, were calculated for each labeled ligand). Radioligand binding assays for 5-HT1A were performed following a published procedure. 5-HT2A and 5-HT2C binding assays were performed reported by Herndon et al..

MDA-MB231 cells = assay: MDA-MB231 cell viability, sulforhodamine B assay; assay type: cell-based, human; settings: for inhibition of MDA-MB231 cell growth: 100 μM, 72 h; for IC50: Homo sapiens, MDA-MB-231, 72 h treatment
Procedure: MCF7 (ER^+, PR^+, HER2^−), SKBR3 (ER^−, PR^+, HER2^+) and MDA-MB231 (ER^−, PR^−, HER2^−) human BC cells and MCF10A non-cancer breast epithelial cells were available in our laboratory. MCF7, SKBR3 and MDA-MB231 cells were cultured in DMEM, supplemented with 10% FBS, 2 mM glutamine, 100 units/ml penicillin and 100 units/ml streptomycin. MCF10A cells were cultured in MEBM, supplemented with 0.4% BPE, 0.1% hEGF, 0.1%, Insulin, 0.1% Hydrocortisone and 0.1% GA-1000. […] Treatment with SER were carried out in culture conditions. Treatment with Tamoxifen and/or SER were carried out upon 48 h estrogen starvation in phenol-red free medium supplemented with 10% Charcoal Stripped (C/S) FBS, 2 mM glutamine, 100 units/ml penicillin and 100 units/ml streptomycin.
Cells were fixed with 50% trichloroacetic acid for at least 2 h at 4 °C, washed with distilled and de-ionized water, air-dryed and stained 30 min with 0.4% sulforhodamine B in 1% acetic acid. Unbound dye was removed and 10 mM tris-HCl solution (pH 7.5) was added to dissolve the protein-bound dye. Cell survival was assessed by optical density determination at 510 nm using a microplate reader.
Cell viability was assessed, after 72 h, by sulforhodamine B assay (see Methods).

T1 sequence (P14842 whole entry): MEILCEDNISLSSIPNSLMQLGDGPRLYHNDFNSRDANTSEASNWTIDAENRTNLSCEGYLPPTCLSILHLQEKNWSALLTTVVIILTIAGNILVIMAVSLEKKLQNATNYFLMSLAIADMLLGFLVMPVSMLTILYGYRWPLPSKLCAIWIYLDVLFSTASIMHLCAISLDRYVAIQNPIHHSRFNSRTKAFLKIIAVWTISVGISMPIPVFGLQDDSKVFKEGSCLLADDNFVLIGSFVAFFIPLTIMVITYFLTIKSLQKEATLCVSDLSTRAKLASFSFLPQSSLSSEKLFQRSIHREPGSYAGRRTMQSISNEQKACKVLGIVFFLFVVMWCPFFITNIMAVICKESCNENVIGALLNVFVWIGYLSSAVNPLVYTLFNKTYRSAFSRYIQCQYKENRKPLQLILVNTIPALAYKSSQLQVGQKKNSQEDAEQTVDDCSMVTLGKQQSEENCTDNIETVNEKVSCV

SMILES | effect on MCF10A cell viability (MCF10A cells; 20 μM) | Ki [1] [µM] | inhibition of MDA-MB231 cell growth (MDA-MB231 cells) | IC50 (MDA-MB231 cells) [µM] | effect on MCF10A cell viability (MCF10A cells; 5 μM) | Ki ± SD, 5-HT2A [3H]Ketanserin [1]
O=C1C2C3C=CC(C3)C2C(=O)N1OCCN1CCN(c2ccc(Cl)c(Cl)c2)CC1 (stereo not drawn) [SER68] | No effect was detected on cell viability | 0.153 ± 0.07 | able to inhibit | 171 ± 37.3 |  | 
N#CN=C(NCCCN1CCN(C(c2ccc(F)cc2)c2ccc(F)cc2)CC1)c1ccccn1 [SER79] |  | 0.504 ± 0.0395 | able to inhibit | 117 | No effect was detected on cell viability | weak

From PMC8845285, “Serotoninergic receptor ligands improve Tamoxifen effectiveness on breast cancer cells” (BMC Cancer, 2022)
